Values after ≈ are worked out from the molar mass of the structure shown.
Legend:
Format in all cases: cell-based
[1] = test system: Staphylococcus aureus (ATTC 25923); test: microbe, parasite or virus in culture; conditions: Example 2, values separated by / are repeat tests
Method in brief: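 Di-TFA salts tested in duplicate at 0.5–200 μg/ml against exponential-phase bacteria at 2×10^6 cfu/ml grown in 2% peptone water. Growth judged by well turbidity, with no-peptide and gentamicin controls.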

[2] = test system: methicillin resistant Staphylococcus aureus (ATCC 33591); test: microbe, parasite or virus in culture; conditions: Staphylococcus aureus, ATCC 33591 / MRSA, Example 2; values separated by / are repeat tests; read-out: Antimicrobial potency (MIC) MRSA
Method in brief: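 Di-TFA salts tested in duplicate at 200 down to 0.5 μg/ml against exponentially grown bacteria at 2×10^6 cfu/ml. Growth judged by well turbidity, with no-peptide and gentamicin controls.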

[3] = test system: methicillin resistant Staphylococcus epidermidis (ATCC 27626); test: microbe, parasite or virus in culture; conditions: Example 2, values separated by / are repeat tests
Method in brief: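 Exponentially grown bacteria (2% peptone water) at 2×10^6 cfu/ml exposed in duplicate to di-TFA salts at 0.5–200 μg/ml. Growth or no growth judged by well turbidity; no-peptide and gentamicin controls included.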

[4] = test system: Escherichia coli (ATTC 25922); test: microbe, parasite or virus in culture; conditions: Escherichia coli, Example 2; values separated by / are repeat tests; read-out: Antimicrobial potency (MIC) E. coli
Method in brief: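 Broth dilution in 2% Bacto Peptone water, inoculum 2×10^6 cfu/ml of exponential-phase bacteria; compounds (di-TFA salts) tested in duplicate at 200 down to 0.5 μg/ml. Growth judged by well turbidity, with no-peptide negative and gentamicin positive controls.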

human red blood cells = test: cells; conditions: Homo sapiens, Erythrocyte; Example 2; highest concentration tested 1000 μg/ml; * low solubility in the test media; read-out: Toxicity RBC (EC50)
Method in brief: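 Washed heparinized RBCs, diluted to 10% hematocrit then to 1% v/v final, incubated with compounds in PBS (1–1000 μg/mL) for 1 h at 37 °C with agitation. Hemoglobin release read at 405 nm against PBS (0%) and 0.1% Triton X-100 (100%); value reported is concentration giving 50% hemolysis.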

A20 = test: cells
Experimental: Cancer Cell Lines A20 or MethA Anticancer assays: 500 μg/ml

MRC-5 [5] = test: Toxicity assay MRC-5; conditions: highest concentration tested 500 μg/ml
Experimental: Cells for Toxicity Studies Used MRC-5 and human RBC MRC-5 assay: 500 μg/ml

DU-145 = test: Compound 7 panel screening; conditions: Homo sapiens, prostate carcinoma
Experimental: (§1) Compound 7 described in Example 2 was screened against two normal cell lines and nine cancer cell lines.
(§2) All cell lines were of human origin. Stock solution of compound 7 was dissolved in assay media containing 10% DMSO. Three parallel experiments were performed against each cell line.

FEMX = test: Compound 7 panel screening; conditions: Homo sapiens, Fem-X, skin melanoma
Experimental: as §1, §2

HT-29 = test: Compound 7 panel screening; conditions: Homo sapiens, colon colorectal adenocarcinoma
Experimental: as §1, §2

HUV-EC-C = test: Compound 7 panel screening; conditions: Homo sapiens, umbilical vein, normal, endothelial
Experimental: as §1, §2

Kelly = test: Compound 7 panel screening; conditions: Homo sapiens, neuroblastoma
Experimental: as §1, §2

MDA-MB435 = test: Compound 7 panel screening; conditions: Homo sapiens, MDA-MB-435, breast carcinoma
Experimental: as §1, §2

MRC-5 [6] = test: Compound 7 panel screening; conditions: Homo sapiens, MRC5, lung, normal, fibroblast
Experimental: as §1, §2

OVCAR-3 = test: Compound 7 panel screening; conditions: Homo sapiens, ovary adenocarcinoma
Experimental: as §1, §2

Ramos = test: Compound 7 panel screening; conditions: Homo sapiens, Burkitt's lymphoma
Experimental: as §1, §2

UT-SCC-24A = test: Compound 7 panel screening; conditions: Homo sapiens, tongue squamous oral carcinoma
Experimental: as §1, §2

UT-SCC-34A = test: Compound 7 panel screening; conditions: Homo sapiens, supraglottic larynx squamous oral carcinoma
Experimental: as §1, §2

`NCCNC(=O)C(CN)(Cc1ccc2ccccc2c1)Cc1ccc2ccccc2c1` [Compound 7, 3-amino-N-(2-aminoethyl)-2,2-bis(naphthalen-2-ylmethyl)propanamide] was tested, and the “Antimicrobial potency (MIC) S. aureus” value [1] was 5 µg/mL, the MIC ([1]; Staphylococcus aureus, read-out: Antimicrobial potency (MIC) S. aureus) was 2.5 µg/mL (≈ 6.07 µM) and the MIC [2] was 5 µg/mL (≈ 12.1 µM). The “Antimicrobial potency (MIC) MRSE” value [3] was 5 µg/mL, the MIC ([3]; Staphylococcus epidermidis, ATCC 27626 / MRSE, read-out: Antimicrobial potency (MIC) MRSE) was 2.5 µg/mL (≈ 6.07 µM) and the MIC [4] was 15 µg/mL (≈ 36.4 µM). The EC50 (human red blood cells) was 292 µg/mL (≈ 710 µM), the “Anticancer potency (IC50) A20” value (A20; Example 2, highest concentration tested 500 μg/ml, * low solubility in the test media (Table 2)) was 0.7 µg/mL and the “Anti-Cancer Selectivity MRC-5/A20” value (A20; ratio of MRC-5 to A20 values) was 19.3-20. For the same molecule, the “Anti-Cancer Selectivity RBC/A20” value (A20; ratio of RBC EC50 to A20 IC50) was 417, the “Toxicity MRC-5” value (MRC-5 [5]; Example 2) was 14 µg/mL and the IC50 (MRC-5 [5]; Homo sapiens, MRC5, Example 2) was 13.5 µg/mL (≈ 32.8 µM). It also gave an IC50 (DU-145) of 15.2 µg/mL (≈ 37 µM), an IC50 (FEMX) of 17.1 µg/mL (≈ 41.6 µM) and an IC50 (HT-29) of 15.4 µg/mL (≈ 37.5 µM). For the same molecule, the IC50 (HUV-EC-C) was 3.81 µg/mL (≈ 9.26 µM), the IC50 (Kelly) was 3.9 µg/mL (≈ 9.48 µM) and the IC50 (MDA-MB435) was 6.54 µg/mL (≈ 15.9 µM). The IC50 (MRC-5 [6]) was 8.21 µg/mL (≈ 19.9 µM), the IC50 (OVCAR-3) was 18.1 µg/mL (≈ 43.9 µM) and the IC50 (Ramos) was 2.61 µg/mL (≈ 6.34 µM). For the same molecule, the IC50 (UT-SCC-24A) was 14.2 µg/mL (≈ 34.5 µM) and the IC50 (UT-SCC-34A) was 16.2 µg/mL (≈ 39.3 µM).

From patent US8809280B2, “Therapeutic peptides” (Lytix Biopharma AS, priority 2009, dated 2014)
